In the NIST ThermoML archive (doi:10.1021/acs.jced.7b00035):
Several values for one entry are separate records, joined by “and”; a condition that tells them apart may be missing. Equal entries are not always repeated.

Assays:
[1] = xn = mol fraction of the nth substance listed; settings: 100 kPa, Liquid, Vibrating tube method
[2] = excess molar enthalpy (molar enthalpy of mixing); xn = mol fraction of the nth substance listed; settings: 100 kPa, Liquid, Flow calorimetry

CC(=O)C(C)C [3-methyl-2-butanone] + O
Settings | excess molar enthalpy, [2] | mass density, [1]
288.15 K, x1 = 0.000837 | -0.0025 kcal/mol | 998.559 kg/m3 and 998.558 kg/m3
288.15 K, x1 = 0.001672 | -0.00495 kcal/mol and -0.00497 kcal/mol | 998.026 kg/m3 and 998.025 kg/m3
288.15 K, x1 = 0.002505 | -0.00739 kcal/mol | 997.502 kg/m3
288.15 K, x1 = 0.002506 | -0.0074 kcal/mol | 997.502 kg/m3
288.15 K, x1 = 0.003337 | -0.00974 kcal/mol | 996.996 kg/m3
288.15 K, x1 = 0.003339 | -0.00976 kcal/mol | 996.993 kg/m3
288.15 K, x1 = 0.004168 | -0.0121 kcal/mol | 996.494 kg/m3
288.15 K, x1 = 0.004171 | -0.0121 kcal/mol | 996.488 kg/m3
288.15 K, x1 = 0.004998 | -0.0145 kcal/mol | 995.988 kg/m3
288.15 K, x1 = 0.005001 | -0.0144 kcal/mol | 996 kg/m3
298.15 K, x1 = 0.000836 | -0.00207 kcal/mol | 996.47 kg/m3
298.15 K, x1 = 0.001671 | -0.00411 kcal/mol | 995.897 kg/m3
298.15 K, x1 = 0.001672 | -0.00411 kcal/mol | 995.899 kg/m3
298.15 K, x1 = 0.002505 | -0.00612 kcal/mol and -0.00606 kcal/mol | 995.337 kg/m3 and 995.348 kg/m3
298.15 K, x1 = 0.003337 | -0.00802 kcal/mol and -0.00799 kcal/mol | 994.799 kg/m3 and 994.805 kg/m3
298.15 K, x1 = 0.004166 | -0.00989 kcal/mol | 994.261 kg/m3
298.15 K, x1 = 0.004168 | -0.00994 kcal/mol | 994.254 kg/m3
298.15 K, x1 = 0.004994 | -0.0118 kcal/mol | 993.729 kg/m3
298.15 K, x1 = 0.004998 | -0.0118 kcal/mol | 993.722 kg/m3
308.15 K, x1 = 0.000836 | -0.00164 kcal/mol | 993.424 kg/m3
308.15 K, x1 = 0.000837 | -0.00163 kcal/mol | 993.426 kg/m3
308.15 K, x1 = 0.001672 | -0.00322 kcal/mol and -0.00323 kcal/mol | 992.827 kg/m3 and 992.824 kg/m3
308.15 K, x1 = 0.002504 | -0.00478 kcal/mol | 992.235 kg/m3
308.15 K, x1 = 0.002506 | -0.00482 kcal/mol | 992.224 kg/m3
308.15 K, x1 = 0.003336 | -0.00632 kcal/mol | 991.647 kg/m3
308.15 K, x1 = 0.00334 | -0.00634 kcal/mol | 991.646 kg/m3
308.15 K, x1 = 0.004167 | -0.00783 kcal/mol | 991.064 kg/m3
308.15 K, x1 = 0.004171 | -0.00781 kcal/mol | 991.067 kg/m3
308.15 K, x1 = 0.005001 | -0.00926 kcal/mol | 990.494 kg/m3
318.15 K, x1 = 0.000836 | -0.00121 kcal/mol | 989.576 kg/m3 and 989.578 kg/m3
318.15 K, x1 = 0.00167 | -0.00239 kcal/mol | 988.947 kg/m3
318.15 K, x1 = 0.001671 | -0.00239 kcal/mol | 988.945 kg/m3
318.15 K, x1 = 0.002338 | -0.0033 kcal/mol | 988.447 kg/m3
318.15 K, x1 = 0.002505 | -0.00353 kcal/mol | 988.318 kg/m3
318.15 K, x1 = 0.003336 | -0.00465 kcal/mol | 987.702 kg/m3
318.15 K, x1 = 0.003337 | -0.00465 kcal/mol | 987.696 kg/m3
318.15 K, x1 = 0.004167 | -0.00571 kcal/mol | 987.091 kg/m3
318.15 K, x1 = 0.004168 | -0.00573 kcal/mol | 987.083 kg/m3
318.15 K, x1 = 0.004997 | -0.00677 kcal/mol | 986.477 kg/m3
318.15 K, x1 = 0.004998 | -0.00677 kcal/mol | 986.481 kg/m3

CC(=O)CC(C)C [4-methylpentan-2-one] + O
Settings | excess molar enthalpy, [2] | mass density, [1]
288.15 K, x1 = 0.000573 | -0.00173 kcal/mol | 998.669 kg/m3
288.15 K, x1 = 0.000574 | -0.00174 kcal/mol | 998.655 kg/m3
288.15 K, x1 = 0.00086 | – | 998.405 kg/m3 and 998.422 kg/m3
288.15 K, x1 = 0.001146 | -0.00341 kcal/mol | 998.224 kg/m3
288.15 K, x1 = 0.001147 | -0.00344 kcal/mol | 998.21 kg/m3
288.15 K, x1 = 0.001432 | -0.00429 kcal/mol | 997.995 kg/m3
288.15 K, x1 = 0.001434 | -0.00425 kcal/mol | 998.001 kg/m3
288.15 K, x1 = 0.001718 | -0.00512 kcal/mol | 997.779 kg/m3
288.15 K, x1 = 0.00172 | -0.00508 kcal/mol | 997.788 kg/m3
288.15 K, x1 = 0.002004 | -0.00591 kcal/mol | 997.592 kg/m3
288.15 K, x1 = 0.002006 | -0.00591 kcal/mol | 997.567 kg/m3
298.15 K, x1 = 0.000574 | -0.00135 kcal/mol and -0.00134 kcal/mol | 996.572 kg/m3 and 996.58 kg/m3
298.15 K, x1 = 0.00086 | -0.002 kcal/mol | 996.345 kg/m3
298.15 K, x1 = 0.000861 | -0.00203 kcal/mol | 996.319 kg/m3
298.15 K, x1 = 0.001146 | -0.00269 kcal/mol | 996.114 kg/m3
298.15 K, x1 = 0.001148 | -0.00271 kcal/mol | 996.078 kg/m3
298.15 K, x1 = 0.001433 | -0.0033 kcal/mol | 995.875 kg/m3
298.15 K, x1 = 0.001435 | -0.00335 kcal/mol | 995.871 kg/m3
298.15 K, x1 = 0.001718 | -0.00394 kcal/mol | 995.624 kg/m3
298.15 K, x1 = 0.001721 | -0.00397 kcal/mol | 995.64 kg/m3
298.15 K, x1 = 0.002004 | -0.00459 kcal/mol | 995.417 kg/m3
298.15 K, x1 = 0.002007 | -0.00455 kcal/mol | 995.402 kg/m3
308.15 K, x1 = 0.000573 | -0.000968 kcal/mol | 993.534 kg/m3 and 993.533 kg/m3
308.15 K, x1 = 0.000859 | -0.00147 kcal/mol | 993.283 kg/m3 and 993.282 kg/m3
308.15 K, x1 = 0.001145 | -0.00193 kcal/mol and -0.00192 kcal/mol | 993.03 kg/m3 and 993.053 kg/m3
308.15 K, x1 = 0.001431 | -0.00239 kcal/mol and -0.00238 kcal/mol | 992.791 kg/m3 and 992.795 kg/m3
308.15 K, x1 = 0.001716 | -0.00285 kcal/mol | 992.542 kg/m3
308.15 K, x1 = 0.001717 | -0.00288 kcal/mol | 992.525 kg/m3
308.15 K, x1 = 0.002002 | -0.0033 kcal/mol | 992.3 kg/m3
308.15 K, x1 = 0.002003 | -0.0033 kcal/mol | 992.285 kg/m3
318.15 K, x1 = 0.000573 | -0.000982 kcal/mol and -0.000633 kcal/mol | –
318.15 K, x1 = 0.000859 | -0.00093 kcal/mol and -0.000918 kcal/mol | 989.411 kg/m3 and 989.421 kg/m3
318.15 K, x1 = 0.001145 | -0.00122 kcal/mol | 989.156 kg/m3
318.15 K, x1 = 0.001146 | -0.00122 kcal/mol | 989.147 kg/m3
318.15 K, x1 = 0.001431 | -0.00149 kcal/mol | 988.905 kg/m3
318.15 K, x1 = 0.001432 | -0.00148 kcal/mol | 988.91 kg/m3
318.15 K, x1 = 0.001717 | -0.00179 kcal/mol | 988.633 kg/m3
318.15 K, x1 = 0.001718 | -0.00178 kcal/mol | 988.636 kg/m3
318.15 K, x1 = 0.002003 | -0.00204 kcal/mol | 988.402 kg/m3
318.15 K, x1 = 0.002004 | -0.00202 kcal/mol | 988.379 kg/m3
